What was measured:
Assay type in all cases: biochemical
Jnk1 = molecular target: T1, Jnk1 (Homo sapiens, UniProt P45983); assay: AlphaScreen kinase assay, Jnk1; conditions: read-out: IC50, activity toward kinase Jnk1
T1 construct: purchased Upstate Biotechnology

FGFR1 = molecular target: T2, FGFR1 (Homo sapiens, UniProt P11362, C488A/C584S); assay: AlphaScreen kinase assay, FGFR1; conditions: read-out: IC50, activity toward kinase FGFR
T2 construct: P1351.pET N6 BI-PTP FGFR A458-E765-X C488A, C584S; made in house; host or cells: E. coli (PTP1B co-expressed)

B-Raf = molecular target: T3, B-Raf (Homo sapiens, UniProt P15056); assay: AlphaScreen kinase assay, B-Raf; conditions: read-out: IC50, activity toward kinase B-Raf
T3 construct: purchased Upstate Biotechnology

Jnk3 = molecular target: T4, Jnk3 (Homo sapiens, UniProt P53779); assay: AlphaScreen kinase assay, Jnk3; conditions: read-out: IC50, activity toward kinase Jnk3
T4 construct: purchased Upstate Biotechnology

B-Raf V600E = molecular target: T5, B-Raf V600E (Homo sapiens, UniProt P15056, V600E); assay: AlphaScreen kinase assay, B-Raf V600E; conditions: read-out: IC50, activity toward kinase B-Raf V600E
T5 construct: P4254. pFastBacBD-CDC37 BRAF D437-K722-X, V600E; His6 with pFastBac HT leader (TEV site) (N); made in house; host or cells: Sf9 (baculovirus; chaperone CDC37 co-expressed)

Flt1 = molecular target: T6, Flt1 (Homo sapiens, UniProt P17948); assay: AlphaScreen kinase assay, Flt1; conditions: read-out: IC50, activity toward kinase Flt1
T6 construct: P1826.pETN6 BI-PTP FLT1 M799-D1165-X WT; His6 (N); made in house; host or cells: E. coli (PTP1B co-expressed)
T6 sequence (P17948 with tags, fused parts or gaps): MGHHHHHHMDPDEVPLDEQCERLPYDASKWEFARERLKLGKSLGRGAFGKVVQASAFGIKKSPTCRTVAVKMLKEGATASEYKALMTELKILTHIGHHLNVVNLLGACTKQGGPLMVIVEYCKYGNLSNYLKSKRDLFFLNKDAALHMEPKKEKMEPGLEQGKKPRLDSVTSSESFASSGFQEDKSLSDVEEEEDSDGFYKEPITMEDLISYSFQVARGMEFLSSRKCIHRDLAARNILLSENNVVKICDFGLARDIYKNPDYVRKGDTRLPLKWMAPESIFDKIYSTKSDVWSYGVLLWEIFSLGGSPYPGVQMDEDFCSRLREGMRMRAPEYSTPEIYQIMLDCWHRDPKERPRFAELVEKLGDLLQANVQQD

Fms = molecular target: T7, Fms (Homo sapiens, UniProt P07333); assay: AlphaScreen kinase assay, Fms; conditions: read-out: IC50, activity toward kinase Fms
T7 construct: purchased Upstate Biotechnology

Kit = molecular target: T8, Kit (Homo sapiens, UniProt P10721); assay: AlphaScreen kinase assay, Kit; conditions: read-out: IC50, activity toward kinase Kit
T8 construct: P1332.N6 BI PTP KIT M552-K948-X COD; His6 (N); made in house; host or cells: E. coli (PTP1B co-expressed)

Src = molecular target: T9, Src (Homo sapiens, UniProt P12931); assay: AlphaScreen kinase assay, Src; conditions: read-out: IC50, activity toward kinase Src
T9 construct: P1144. pET-N6 BI-PTP SRC V86-L536-X; made in house

c-Raf-1 = molecular target: T10, c-Raf-1 (Homo sapiens, UniProt P04049); assay: AlphaScreen kinase assay, c-Raf-1; conditions: read-out: IC50, activity toward kinase c-Raf-1
T10 construct: purchased Upstate Biotechnology

Ret = molecular target: T11, Ret (Homo sapiens, UniProt P07949); assay: AlphaScreen kinase assay, Ret; conditions: read-out: IC50, activity toward kinase Ret
T11 construct: P1378.pET-SF BI-PTP RET H661-R1012 HIS; made in house
T11 sequence (P07949 with tags, fused parts or gaps): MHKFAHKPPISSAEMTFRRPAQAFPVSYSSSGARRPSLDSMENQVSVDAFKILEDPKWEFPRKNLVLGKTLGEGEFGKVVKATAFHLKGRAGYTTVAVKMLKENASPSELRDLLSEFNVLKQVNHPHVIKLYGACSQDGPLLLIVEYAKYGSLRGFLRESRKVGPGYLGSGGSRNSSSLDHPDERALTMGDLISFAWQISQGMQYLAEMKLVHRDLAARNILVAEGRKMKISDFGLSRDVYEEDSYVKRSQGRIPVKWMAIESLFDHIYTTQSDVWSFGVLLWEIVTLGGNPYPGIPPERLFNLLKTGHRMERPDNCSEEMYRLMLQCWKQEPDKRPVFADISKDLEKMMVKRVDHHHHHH

T5 sequence (P15056 with tags, fused parts or gaps V600E): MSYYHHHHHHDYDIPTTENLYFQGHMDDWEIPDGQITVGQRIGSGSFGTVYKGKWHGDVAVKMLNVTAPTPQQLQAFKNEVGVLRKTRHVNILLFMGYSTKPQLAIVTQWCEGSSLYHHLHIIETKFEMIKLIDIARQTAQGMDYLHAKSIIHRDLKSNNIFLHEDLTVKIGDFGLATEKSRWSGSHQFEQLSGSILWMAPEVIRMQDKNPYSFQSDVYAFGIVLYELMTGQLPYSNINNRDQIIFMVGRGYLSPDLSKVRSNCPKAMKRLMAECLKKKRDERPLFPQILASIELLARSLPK
T8 sequence (P10721 with tags, fused parts or gaps): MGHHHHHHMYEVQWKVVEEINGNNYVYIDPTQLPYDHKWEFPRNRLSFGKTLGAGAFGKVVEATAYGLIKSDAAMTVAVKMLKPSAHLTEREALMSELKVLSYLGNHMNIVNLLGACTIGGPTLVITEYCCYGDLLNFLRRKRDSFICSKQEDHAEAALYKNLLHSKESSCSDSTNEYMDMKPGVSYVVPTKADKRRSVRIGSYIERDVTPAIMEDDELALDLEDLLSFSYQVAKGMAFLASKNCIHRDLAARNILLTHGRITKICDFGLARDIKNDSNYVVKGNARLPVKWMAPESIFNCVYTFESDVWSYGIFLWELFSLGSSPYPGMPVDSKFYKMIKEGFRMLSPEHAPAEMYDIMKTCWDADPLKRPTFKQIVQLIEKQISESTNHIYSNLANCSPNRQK
T9 sequence (P12931 with tags, fused parts or gaps): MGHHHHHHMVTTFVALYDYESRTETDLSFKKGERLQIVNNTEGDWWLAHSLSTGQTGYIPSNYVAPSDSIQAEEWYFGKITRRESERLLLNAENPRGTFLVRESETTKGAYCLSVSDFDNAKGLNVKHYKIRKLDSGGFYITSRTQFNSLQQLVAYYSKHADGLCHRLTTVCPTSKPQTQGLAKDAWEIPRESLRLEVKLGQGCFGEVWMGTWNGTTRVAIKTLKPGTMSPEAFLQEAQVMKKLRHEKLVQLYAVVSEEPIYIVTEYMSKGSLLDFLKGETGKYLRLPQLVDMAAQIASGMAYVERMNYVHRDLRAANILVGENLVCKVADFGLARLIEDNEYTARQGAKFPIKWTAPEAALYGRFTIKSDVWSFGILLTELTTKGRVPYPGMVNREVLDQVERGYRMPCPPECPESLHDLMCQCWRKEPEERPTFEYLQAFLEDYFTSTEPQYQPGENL
T3 sequence (P15056 whole entry): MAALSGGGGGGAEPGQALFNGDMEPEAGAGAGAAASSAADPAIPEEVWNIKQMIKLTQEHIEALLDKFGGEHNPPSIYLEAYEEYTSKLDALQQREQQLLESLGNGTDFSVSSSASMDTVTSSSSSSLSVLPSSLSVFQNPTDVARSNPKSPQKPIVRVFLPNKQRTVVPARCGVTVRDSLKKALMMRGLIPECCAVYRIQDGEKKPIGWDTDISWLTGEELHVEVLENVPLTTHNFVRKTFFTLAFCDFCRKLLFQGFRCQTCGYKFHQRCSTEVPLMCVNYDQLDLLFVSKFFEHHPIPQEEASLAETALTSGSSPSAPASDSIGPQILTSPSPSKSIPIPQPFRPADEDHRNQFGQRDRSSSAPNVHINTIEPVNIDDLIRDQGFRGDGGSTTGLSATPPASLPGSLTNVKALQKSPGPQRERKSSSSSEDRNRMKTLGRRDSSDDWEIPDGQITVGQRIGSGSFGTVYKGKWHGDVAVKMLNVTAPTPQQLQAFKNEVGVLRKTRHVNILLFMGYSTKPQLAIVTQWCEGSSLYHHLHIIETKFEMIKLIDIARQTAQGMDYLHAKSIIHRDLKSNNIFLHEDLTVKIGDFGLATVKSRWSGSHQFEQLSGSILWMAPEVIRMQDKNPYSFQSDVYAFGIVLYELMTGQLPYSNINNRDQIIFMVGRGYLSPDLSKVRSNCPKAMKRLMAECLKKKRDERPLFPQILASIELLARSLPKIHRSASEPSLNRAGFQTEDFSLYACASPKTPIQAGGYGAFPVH
T10 sequence (P04049 whole entry): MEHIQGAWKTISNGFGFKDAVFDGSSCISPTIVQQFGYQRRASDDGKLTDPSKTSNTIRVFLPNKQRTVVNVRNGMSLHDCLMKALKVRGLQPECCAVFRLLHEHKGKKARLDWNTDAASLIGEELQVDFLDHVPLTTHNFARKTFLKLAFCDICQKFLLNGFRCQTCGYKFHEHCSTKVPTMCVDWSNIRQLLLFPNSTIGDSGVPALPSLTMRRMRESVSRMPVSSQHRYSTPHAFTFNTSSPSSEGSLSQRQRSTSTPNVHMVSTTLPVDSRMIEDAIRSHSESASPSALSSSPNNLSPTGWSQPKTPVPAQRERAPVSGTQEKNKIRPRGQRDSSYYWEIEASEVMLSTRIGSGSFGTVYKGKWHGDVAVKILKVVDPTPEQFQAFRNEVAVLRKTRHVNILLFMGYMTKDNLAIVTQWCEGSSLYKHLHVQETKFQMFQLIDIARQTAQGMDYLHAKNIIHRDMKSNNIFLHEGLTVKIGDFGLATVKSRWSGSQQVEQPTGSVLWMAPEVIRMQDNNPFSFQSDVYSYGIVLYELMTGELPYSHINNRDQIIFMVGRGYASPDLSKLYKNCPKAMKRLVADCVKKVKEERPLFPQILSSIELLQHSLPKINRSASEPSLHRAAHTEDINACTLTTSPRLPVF
T2 sequence (P11362 458-765 C488A/C584S): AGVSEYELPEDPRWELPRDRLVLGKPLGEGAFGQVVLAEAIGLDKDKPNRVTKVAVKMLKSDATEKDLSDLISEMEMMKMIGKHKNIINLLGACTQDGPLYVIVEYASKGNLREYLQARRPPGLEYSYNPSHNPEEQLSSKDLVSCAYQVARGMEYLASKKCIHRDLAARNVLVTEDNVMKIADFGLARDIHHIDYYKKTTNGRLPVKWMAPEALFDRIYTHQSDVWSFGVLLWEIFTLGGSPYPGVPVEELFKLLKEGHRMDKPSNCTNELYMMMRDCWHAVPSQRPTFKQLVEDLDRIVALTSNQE
T7 sequence (P07333 20-972): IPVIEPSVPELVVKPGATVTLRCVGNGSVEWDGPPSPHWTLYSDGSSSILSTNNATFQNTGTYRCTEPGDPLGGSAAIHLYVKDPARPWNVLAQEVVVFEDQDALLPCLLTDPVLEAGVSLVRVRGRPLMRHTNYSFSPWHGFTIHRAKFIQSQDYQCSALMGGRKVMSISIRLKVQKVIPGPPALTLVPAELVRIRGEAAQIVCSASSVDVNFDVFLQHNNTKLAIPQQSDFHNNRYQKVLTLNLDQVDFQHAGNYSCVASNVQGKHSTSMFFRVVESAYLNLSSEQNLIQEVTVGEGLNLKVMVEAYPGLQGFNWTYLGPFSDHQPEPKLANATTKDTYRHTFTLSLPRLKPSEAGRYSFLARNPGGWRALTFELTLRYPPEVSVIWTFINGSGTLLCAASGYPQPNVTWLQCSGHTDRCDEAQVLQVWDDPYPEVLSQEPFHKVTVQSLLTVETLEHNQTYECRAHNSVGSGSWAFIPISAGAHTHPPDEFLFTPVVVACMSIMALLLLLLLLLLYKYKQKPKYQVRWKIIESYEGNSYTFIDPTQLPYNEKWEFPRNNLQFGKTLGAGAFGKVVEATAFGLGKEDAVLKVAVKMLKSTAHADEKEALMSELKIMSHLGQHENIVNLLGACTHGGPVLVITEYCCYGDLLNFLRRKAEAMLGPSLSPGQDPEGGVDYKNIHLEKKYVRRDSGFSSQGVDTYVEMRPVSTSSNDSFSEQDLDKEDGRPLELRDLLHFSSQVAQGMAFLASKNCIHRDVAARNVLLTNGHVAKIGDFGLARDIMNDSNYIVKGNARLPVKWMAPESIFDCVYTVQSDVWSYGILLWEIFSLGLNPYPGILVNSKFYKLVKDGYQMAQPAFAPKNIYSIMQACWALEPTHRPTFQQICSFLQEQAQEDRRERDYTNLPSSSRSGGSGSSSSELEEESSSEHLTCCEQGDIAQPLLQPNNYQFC
T4 sequence (P53779 whole entry): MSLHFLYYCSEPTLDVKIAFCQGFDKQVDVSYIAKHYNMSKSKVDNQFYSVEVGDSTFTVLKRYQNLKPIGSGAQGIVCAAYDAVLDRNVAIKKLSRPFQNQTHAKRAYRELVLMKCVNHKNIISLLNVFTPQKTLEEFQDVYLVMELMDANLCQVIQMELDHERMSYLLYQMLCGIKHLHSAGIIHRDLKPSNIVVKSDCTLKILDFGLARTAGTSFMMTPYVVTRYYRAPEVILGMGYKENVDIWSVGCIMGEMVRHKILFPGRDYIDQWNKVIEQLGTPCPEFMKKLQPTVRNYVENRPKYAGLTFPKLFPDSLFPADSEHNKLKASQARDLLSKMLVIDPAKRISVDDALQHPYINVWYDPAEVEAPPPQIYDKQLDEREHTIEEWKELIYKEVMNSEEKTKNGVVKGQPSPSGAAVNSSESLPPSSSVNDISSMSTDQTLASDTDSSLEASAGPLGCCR
T1 sequence (P45983 whole entry): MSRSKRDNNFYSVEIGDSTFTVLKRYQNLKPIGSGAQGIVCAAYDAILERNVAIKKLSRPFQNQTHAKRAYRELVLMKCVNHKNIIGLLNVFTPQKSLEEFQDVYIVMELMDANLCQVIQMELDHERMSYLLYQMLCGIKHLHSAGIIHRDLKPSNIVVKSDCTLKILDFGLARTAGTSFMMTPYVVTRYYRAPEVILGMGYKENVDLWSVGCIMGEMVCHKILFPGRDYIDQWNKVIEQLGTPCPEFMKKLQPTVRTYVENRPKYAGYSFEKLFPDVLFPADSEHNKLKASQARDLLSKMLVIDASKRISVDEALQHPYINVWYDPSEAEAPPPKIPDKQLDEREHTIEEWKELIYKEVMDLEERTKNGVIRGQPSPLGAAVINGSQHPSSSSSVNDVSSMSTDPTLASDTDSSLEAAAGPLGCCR

IC50 (Jnk1)	IC50 (FGFR1)	IC50 (B-Raf)	IC50 (Jnk3)	IC50 (B-Raf V600E)	IC50 (Flt1)	IC50 (Fms)	IC50 (Kit)	IC50 (Src)	IC50 (c-Raf-1)	IC50 (Ret)	SMILES
≤ 10 µM	≤ 10 µM	≤ 10 µM	≤ 10 µM	≤ 10 µM	≤ 10 µM						NC(=O)c1cccc(-c2cnc3[nH]cc(C(=O)c4cccc(N)c4)c3c2)c1 [Compound P-1592]
	≤ 10 µM			≤ 10 µM	≤ 10 µM	≤ 10 µM		≤ 10 µM			Clc1ccc(CNc2ccc(Cc3c[nH]c4nccc(Cl)c34)cn2)cc1 [Compound P-0515]
	≤ 10 µM			≤ 10 µM				≤ 10 µM			CCCS(=O)(=O)Nc1ccc(F)c(Cc2c[nH]c3ncc(NCCN4CCN(C)CC4)cc23)c1F [Compound P-1345]
							≤ 10 µM	≤ 10 µM			Cc1cccc(C)c1C(=O)c1c[nH]c2ncccc12 [Compound P-1484]
	≤ 10 µM			≤ 10 µM		≤ 10 µM		≤ 10 µM	≤ 10 µM		COC(=O)Nc1ccc(F)c(C(=O)c2c[nH]c3ncc(Br)cc23)c1F [Compound P-1448]
	≤ 10 µM			≤ 10 µM				≤ 10 µM	≤ 10 µM		CN(C)S(=O)(=O)Nc1ccc(F)c(C(=O)c2c[nH]c3ncccc23)c1F [Compound P-0950, Dimethylamine-1-sulfonic acid [3-(1H-pyrrolo[2,3-b]pyridine-3-carbonyl)-2,4-difluoro-phenyl]-amide]
	≤ 10 µM			≤ 10 µM	≤ 10 µM	≤ 10 µM	≤ 10 µM	≤ 10 µM			CS(=O)(=O)Nc1cccc(-c2cnc3[nH]cc(Cc4ccc5c(c4)OCCO5)c3c2)c1 [Compound P-1530, N-{3-[3-(2,3-Dihydro-benzo[1,4]dioxin-6-ylmethyl)-1H-pyrrolo[2,3-b]pyridin-5-yl]-phenyl}-methanesulfonamide]
	≤ 10 µM	≤ 10 µM		≤ 10 µM	≤ 10 µM	≤ 10 µM	≤ 10 µM	≤ 10 µM			O=C(COc1ccc(F)c(Cc2c[nH]c3ncc(-c4cccnc4)cc23)c1F)NCc1ccccc1 [Compound P-1469, N-Benzyl-2-[2,4-difluoro-3-(5-pyridin-3-yl-1H-pyrrolo[2,3-b]pyridin-3-ylmethyl)-phenoxy]-acetamide]
≤ 10 µM	≤ 10 µM	≤ 10 µM	≤ 10 µM	≤ 10 µM	≤ 10 µM	≤ 10 µM	≤ 10 µM				CCCCNC(=O)Nc1ccc(F)c(C(=O)c2c[nH]c3ncc(-c4cccnc4)cc23)c1 [Compound P-1534, 1-Butyl-3-[4-fluoro-3-(5-pyridin-3-yl-1H-pyrrolo[2,3-b]pyridine-3-carbonyl)-phenyl]-urea]

The remaining lines, values behind:

SMILES	IC50 (Jnk1)	IC50 (FGFR1)	IC50 (B-Raf)	IC50 (Jnk3)	IC50 (B-Raf V600E)	IC50 (Flt1)	IC50 (Fms)	IC50 (Kit)	IC50 (Src)	IC50 (c-Raf-1)	IC50 (Ret)
CCCS(=O)(=O)Nc1cccc(C(=O)c2c[nH]c3ncc(-c4ccccc4)cc23)c1C [Compound P-1610]	≤ 10 µM	≤ 10 µM	≤ 10 µM	≤ 10 µM	≤ 10 µM	≤ 10 µM	≤ 10 µM				
Nc1ccc(F)c(C(=O)c2c[nH]c3ncc(-c4ccccc4)cc23)c1 [Compound P-1577]	≤ 10 µM	≤ 10 µM	≤ 10 µM	≤ 10 µM	≤ 10 µM	≤ 10 µM					
O=C(c1c(Cl)cccc1Cl)c1c[nH]c2ncccc12 [Compound P-1476]		≤ 10 µM					≤ 10 µM	≤ 10 µM	≤ 10 µM		
O=S(=O)(Nc1ccc(F)c(Cc2c[nH]c3ncc(-c4cccnc4)cc23)c1F)c1ccccc1 [Compound P-1398]		≤ 10 µM			≤ 10 µM				≤ 10 µM	≤ 10 µM	
O=C(O)/C=C/c1cccc(-c2cnc3[nH]cc(C(=O)c4cccc(C(F)(F)F)c4)c3c2)c1 [Compound P-1416, (E)-3-{3-[3-(3-Trifluoromethyl-benzoyl)-1H-pyrrolo[2,3-b]pyridin-5-yl]-phenyl}-acrylic acid]		≤ 10 µM			≤ 10 µM	≤ 10 µM	≤ 10 µM	≤ 10 µM	≤ 10 µM		
COc1ccnc2[nH]cc(Cc3ccc(NCc4ccc(Cl)cc4)nc3)c12 [Compound P-0373]		≤ 10 µM			≤ 10 µM	≤ 10 µM	≤ 10 µM		≤ 10 µM		
c1ccc(Oc2cccc(Nc3c[nH]c4ncccc34)c2)cc1 [Compound P-1496, (3-Phenoxy-phenyl)-(1H-pyrrolo[2,3-b]pyridin-3-yl)-amine]							≤ 10 µM		≤ 10 µM		
CCCS(=O)(=O)Nc1ccc(F)c(C(=O)c2c[nH]c3ncc(-c4ccc(C(N)=O)cc4)cc23)c1F [Compound P-1546, 4-{3-[2,6-Difluoro-3-(propane-1-sulfonylamino)-benzoyl]-1H-pyrrolo[2,3-b]pyridin-5-yl}-benzamide]	≤ 10 µM	≤ 10 µM	≤ 10 µM	≤ 10 µM	≤ 10 µM	≤ 10 µM	≤ 10 µM	≤ 10 µM		≤ 10 µM	
COc1cccc(N(C)c2c[nH]c3ncccc23)c1 [Compound P-1506, (3-Methoxy-phenyl)-methyl-(1H-pyrrolo[2,3-b]pyridin-3-yl)-amine]					≤ 10 µM		≤ 10 µM	≤ 10 µM	≤ 10 µM		
COc1ccc(C(=O)c2c[nH]c3ncc(Br)cc23)c(Cl)c1 [Compound P-0647]		≤ 10 µM			≤ 10 µM			≤ 10 µM	≤ 10 µM		≤ 10 µM
O=C(O)/C=C/c1cccc(-c2cnc3[nH]cc(C(=O)c4ccc(Cl)cc4Cl)c3c2)c1 [Compound P-1585]	≤ 10 µM	≤ 10 µM	≤ 10 µM	≤ 10 µM	≤ 10 µM	≤ 10 µM					
O=[N+]([O-])c1cccc(C(O)c2c[nH]c3ncc(-c4cccnc4)cc23)c1 (centres unmarked) [Compound P-1399, (3-nitro-phenyl)-(5-pyridin-3-yl-1H-pyrrolo[2,3-b]pyridin-3-yl)-methanol]		≤ 10 µM			≤ 10 µM		≤ 10 µM	≤ 10 µM	≤ 10 µM		
O=C(O)COc1ccc(F)c(Cc2c[nH]c3ncc(-c4cccnc4)cc23)c1F [Compound P-1468, [2,4-difluoro-3-(5-pyridin-3-yl-1H-pyrrolo[2,3-b]pyridin-3-ylmethyl)-phenoxy]-acetic acid]	≤ 10 µM	≤ 10 µM		≤ 10 µM		≤ 10 µM	≤ 10 µM	≤ 10 µM			
COCCOc1ccc(F)c(C(=O)c2c[nH]c3ncc(-c4cccc(NS(C)(=O)=O)c4)cc23)c1F [Compound P-1472, N-(3-{3-[2,6-Difluoro-3-(2-methoxy-ethoxy)-benzoyl]-1H-yrrolo[2,3-b]pyridin-5-yl}-phenyl)-methanesulfonamide]		≤ 10 µM	≤ 10 µM		≤ 10 µM	≤ 10 µM	≤ 10 µM	≤ 10 µM	≤ 10 µM		
